Patent US20240174625A1, “COMPOSITIONS AND METHODS FOR TREATING TAUOPATHIES” (The Regents of the University of California, priority 2021, published 2024)

Assays:
NPEPPS = biological target: T1, NPEPPS (Homo sapiens, UniProt P55786); test: Cellular thermal shift assay (CETSA) in HEK293T cell lysates; format: binding; conditions: concentration-dependent
T1 construct: endogenous in cells; host or cells: HEK293T
Method: Cellular thermal shift analysis (CETSA) was conducted at Pelago Bioscience. Briefly, HEK293T cells were harvested and suspended in an experimental Buffer B (20 mM HEPES, 138 mM NaCl, 5 mM KCl, 2 mM CaCl2), 1 mM MgCl2, pH7.4) at a density of 4×10^7 cells/ml. Cell suspension was lysed by three rounds of freeze-thaw cycles with liquid nitrogen and clarified at 20,000 g for 20 min at 4° C. Compounds diluted to 2× final concentration (final solution contains 1% DMSO) in Buffer B were added to equal volume of clarified cell lysates and incubated at 37° C. for 30 min with continuous rotation. 1% DMSO was used as a negative control in parallel. The treated cell lysates were then divided into 60 μl aliquots and subjected to a 12-step heat challenge between 50° C. and 62° C. for 3 min. For the concentration-dependent analyses, clarified cell lysates in 30 aliquots were mixed with an equal volume of compounds or DMSO in Buffer B at 2× intended compound concentration and incubated at 37° C. for 30 min with continuous rotation. JMM001-treated lysates were then heat challenged at 59° C. as determined from its corresponding cellular thermal shift curve. All treated lysates were immediately centrifugated at 20,000 g for 20 min at 4° C. prior to immunoblotting analysis. […] The obtained intensities were plotted as the luminescence count normalized to a relevant temperature or control count as specified.

ataxin-3 = test: Ataxin-3 protein level in human primary cortical neurons; format: cell-based; conditions: 50 μM, 48 hrs
Method: (§1) FIG. 11. Potential applications of NPEPPS enhancer JMM series on other neurodegenerative diseases. JMM001 (Cp 1) at 50 μM reduces protein levels of huntingtin (htt), SOD1, ataxin, and alpha-synuclein in human primary cortical neurons. Neurons were treated with 50 μM JMM001 or 10 uM bestatin for 48 hrs. N=3-4±SEM.

[1] = system: superoxide dismutase 1 (SOD1); test: SOD1 protein level in human primary cortical neurons; format: cell-based; conditions: 50 μM, 48 hrs
Method: as §1

Huntingtin = Huntingtin protein level in human primary cortical neurons; format: cell-based; conditions: 50 μM, 48 hrs
Method: as §1

[2] = system: rhodopsin::EGFP-MAPT transgenic zebrafish expressing the Tau^P301L mutation; test: Photoreceptor neurodegeneration in a zebrafish model of tauopathy; format: in vivo
Method: The rhodopsin::EGFP-MAPT transgenic zebrafish expressing the Tau^P301L mutation is generated and maintained as previously described^22,23. Tau^P301L expression is restricted to the rods of the retina. Photoreceptor image and quantification in central retina sections in the region of the optic nerve head is performed as previously described^2223.

phosphorylated tau = test: Tau histopathology in hTau^P301S mouse model of tauopathy; format: in vivo; conditions: hTau^P301S homozygous mice; 20 mg/kg/day s.c. for 28 days; compared to vehicle
Excerpt: Adult hTau^P301S homozygous mice (Tg2541Godt mice, a transgenic mouse model of tauopathy carrying a human Tau^P301S mutation^19 and wild-type (WT) littermates on a C57BL/6J background of both genders were used in the in vivo efficacy on Tau histopathology experiments. hTauP301S homozygous mice were obtained as gifts from Dr. Michel Goedert at MRC Laboratory of Molecular Biology, Cambridge, UK and Dr. Stanley Prusiner at UCSF, USA, and were re-derived onto a pure C57BL/6J genetic background by Dr. Prusiner's lab. Mice were periodically outcrossed with WT C57BL/6J mice (Strain #000664) from Jackson Laboratory (Bar Harbor, ME) to maintain genetic diversity. Animals were group-housed in a temperature-controlled facility (73±2° F., 45% humidity, regular 12-hour light/dark cycle, lights on at 7 AM), with food and water ad libitum. All experimental procedures were approved by the ARC administrative office at the University of California Los Angeles (UCLA) and the UCLA institutional animal care and use committee (IACUC) and followed the USDA Animal Welfare Act Regulations, the Public Health Service (PHS) Policy on Humane Care and Use of Laboratory Animals, and the Guide for the Care and Use of Laboratory Animals. Adult male WT mice on a C57BL/6J background (Strain #000664), purchased from Jackson Laboratory (Bar Harbor, ME), were used in the in vivo pharmacokinetics and blood-brain barrier penetration studies. Animals were randomly assigned to experimental groups and tested by experimenters blinded to experimental conditions.
Osmotic minipump (model #2004) were purchased from Alzet (Cupertino, CA, USA) and implanted into mice subcutaneously (s.c.) following the manufacturer's instruction, as previously described^20. Briefly, animals are placed on a thermoregulation device and anesthetized using isoflurane [4-5% (induction), 1.5-2.5% (maintenance)]. A sterile drape is used to create a sterile field for surgery after animal preparation. […] Animals are monitored observed continuously during the immediate anesthetic-recovery period until the animal is ambulatory. Animals are monitored daily after anesthetic recovery for 7 days. […]
Assessment of tau histopathological in a mouse model of tauopathy Effects of pharmacological manipulations of JMM compounds on tau histopathology were evaluated via osmotic pump chronic infusion at 20 mg/kg/day s.c. over 28 consecutive days in hTau^P301S homozygous mice or WT littermates, starting treatment at the onset of Tau histopathology (i.e., 4.2 months old age). […] Animals are weighted (g) and rectal temperature (° C.) was measured using a thermometer equipped with a mouse rectal probe (Braintree Scientific Inc., Braintree, MA) on treatment day 27. […]

T1 sequence (P55786 whole entry): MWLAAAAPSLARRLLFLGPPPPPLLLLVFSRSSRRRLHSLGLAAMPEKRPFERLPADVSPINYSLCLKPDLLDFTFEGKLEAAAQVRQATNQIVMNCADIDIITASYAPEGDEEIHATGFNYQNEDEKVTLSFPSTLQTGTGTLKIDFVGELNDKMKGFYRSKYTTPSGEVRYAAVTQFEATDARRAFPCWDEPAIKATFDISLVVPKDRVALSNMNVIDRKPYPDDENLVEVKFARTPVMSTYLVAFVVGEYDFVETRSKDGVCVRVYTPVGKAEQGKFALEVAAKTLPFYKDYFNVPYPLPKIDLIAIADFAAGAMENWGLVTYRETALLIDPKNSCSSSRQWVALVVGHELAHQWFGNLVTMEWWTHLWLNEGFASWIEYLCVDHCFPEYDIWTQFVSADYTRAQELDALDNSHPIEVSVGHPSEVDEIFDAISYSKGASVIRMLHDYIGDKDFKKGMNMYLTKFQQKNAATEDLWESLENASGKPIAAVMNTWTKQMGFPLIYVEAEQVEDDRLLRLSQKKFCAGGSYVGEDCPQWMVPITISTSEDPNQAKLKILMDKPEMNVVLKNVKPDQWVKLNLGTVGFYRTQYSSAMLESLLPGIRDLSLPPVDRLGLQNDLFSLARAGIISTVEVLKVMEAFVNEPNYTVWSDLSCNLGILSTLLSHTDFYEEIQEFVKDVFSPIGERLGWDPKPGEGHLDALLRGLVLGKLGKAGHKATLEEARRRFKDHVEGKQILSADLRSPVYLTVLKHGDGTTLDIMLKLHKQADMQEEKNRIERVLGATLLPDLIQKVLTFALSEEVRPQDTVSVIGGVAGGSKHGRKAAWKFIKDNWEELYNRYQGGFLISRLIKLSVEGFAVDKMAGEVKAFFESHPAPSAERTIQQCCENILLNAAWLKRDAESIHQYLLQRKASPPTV

Question: With `COc1ccc(CNc2nsc3ccccc23)cc1OC` [JMM001] as the molecule, how does the “thermal shift of NPEPPS” value (NPEPPS) read?
Answer: significant thermal shift

Question: What about the “protein level of ataxin-3” value (ataxin-3) of the same molecule?
Answer: reduces

Question: And the “protein level of SOD1” value [1]?
Answer: reduces

Question: What about the “protein level of Huntingtin” value (Huntingtin) of the same molecule?
Answer: reduces

Question: What about the photoreceptor degeneration ([2]; 0.01 and 0.03 μM, compared to DMSO control) of the same molecule?
Answer: rescue

Question: What about the retinal photoreceptor degeneration ([2]; 0.01 and 0.05 μM) of the same molecule?
Answer: rescued

Question: For `c1ccc2c(CNc3nsc4ccccc34)cccc2c1` [JMM013], which “tau histopathology in the cortex (phosphorylated tau staining)” value (from here on “tau histopathology in the cortex”) (phosphorylated tau) is on record?
Answer: reduced

Question: `c1ccc(COc2ccc(CNc3nsc4ccc(OCc5ccccc5)cc34)cc2)cc1` [JMM083] was tested. Which “tau histopathology in the cortex” value (phosphorylated tau) did it give?
Answer: reduced

Question: Which “tau histopathology in the cortex” value (phosphorylated tau) does the source give for `c1ccc2c(c1)-c1ccccc1C2Nc1nsc2ccccc12` [JMM052] here?
Answer: does not significantly reduce
